Assay results taken from patent publication US20210154162A1, “DRUG AND PHARMACEUTICAL COMPOSITION CONTAINING TRANSPORT PROTEIN INHIBITOR, AND USE” (Institute of Basic Medical Sciences Chinese Academy of …, priority 2018, published 2021).

Key:
PD-1 [1] = test: PD-1 expression in anti-CD3/CD28 bead-activated CD8+ T cells treated with Kyn or other tryptophan metabolites (flow cytometry); format: cell-based, mouse; conditions: Kyn at different concentrations; 200 μM for different time periods; anti-CD3/CD28 microbeads
Description: (4) The isolated splenic CD8^+ T cells were incubated with anti-CD3/CD28 beads in the presence of different concentrations of Kyn. PD-1 expression was determined by flow cytometry.
(5) The experimental steps were the same as those of step (4), except that CD8^+ T cells were treated with 200 μM Kyn for different time periods as shown in FIG. 2E.
(6) Anti-CD3/CD28 bead-activated CTLs were treated with PBS, 200 μM Kyn or other metabolites (500 μM) from the tryptophan pathway (melatonin, kynurinic acid and indoxyle sulphate). After 24 h, PD-1 expression was determined by flow cytometry.

AhR = AhR localisation and expression in CD8+ T cells (confocal microscopy, western blot); format: cell-based, mouse; conditions: 48 h
Description: (1) CD8^+ T cells isolated from spleen were stimulated with 200 μM Kyn or Kyn+anti-CD3/CD28 beads for 48 h. CD8^+ T cells were fixed, stained with an anti-AhR antibody and imaged by confocal microscopy. Bar, […]. (2) The experimental steps were the same as those of step (1), except that the cytoplasmic and nuclear protein fractions were seperated prior to the western blot analysis of AhR. The intensity relative to that in the resting/Kyn group was calculated. (3) Western blot analysis of AhR expression in both resting CD8^+ T cells and anti-CD3/CD28 bead-activated CD8^+ T cells treated with PBS or Kyn (200 μM) for 48 h was carried out. AhR ratio of Nuc/Cyt was calculated relative to that in the Kyn (−) group.

CD8^+ T cells = test: Essential amino acids in the cytosol of activated CD8+ T cells (LC-QE-MS); format: cell-based; conditions: 48-hour Kyn treatment
Description: Regarding the antiport function in many transport systems, the inventors additionally analyzed the influence of SLC7A8 and PAT4 on the transport of other essential amino acids. After 48-hour treatment with or without Kyn, anti-CD3/CD28 bead-activated CD8^+ T cells were used to analyze essential amino acids in the cytosol by LC-QE-MS.

PD-1 [2] = test: OVA-B16 melanoma-bearing mice with adoptively transferred CFSE-labeled OT-1 T cells, PD-1 expression; format: in vivo, mouse; conditions: Kyn 50 μg/mouse i.p. once every two days, three times; Day 7
Description: (6) C57BL/6 mice with 5×5 mm OVA-B16 melanoma were adoptively transferred with CFSE-labeled OT-1 CD8^+ T cells (4×10^6 cells/mouse, once every three days) on three occasions. At the same time, some mice were i.p. injected with Kyn (50 μg/mouse, once every two days) for three times. On Day 7 after transferring, CFSE^+CD8^+ T cells were isolated from tumor for flow cytometric analysis of PD-1 expression.
(8) The experimental steps were the same as those of step (7), except that C57BL/6 mice were treated with Kyn, DMF (5 μg/mouse, o.t., twice every day) or Kyn+DMF for 6 days. CFSE^+CD8^+ T cells from tumor were isolated for flow cytometric analysis of PD-1 expression.

B16 melanoma = test: B16 melanoma-bearing C57BL/6 mice treated with Kyn, DMF or Kyn+DMF; format: in vivo, mouse
Description: (9) C57BL/6 mice with 5×5 mm B16 melanoma were treated with PBS, Kyn (50 μg/mouse, i.p., once every two days), DMF (5 μg/mouse, o.t., once every day) or Kyn+DMF for 6 days. PD-1 expression in CD8^+ T cells isolated from tumors was determined by flow cytometry (n=5). (14) The experimental steps were the same as those of step (9), except that the tumors were weighed. The weighing results were as shown in FIG. 6P. *p<0.05, **p<0.01; #p<0.05, ##p<0.01, as compared with CTL group. The data represented mean±SEM.

PD-1 [3] = test: PD-1 expression in human CD8+ T cells treated with Kyn and AhR inhibitors (flow cytometry); format: cell-based; conditions: resting and activated CD8+ T cells from healthy donors, breast and lung cancer patients; Kyn 200 μM, 48 h
Description: (4) CD8^+ T cells isolated from PBMCs of patients with breast cancer or lung cancer were activated by anti-CD3/CD28 beads and treated with PBS, Kyn (200 μM) or Kyn/DMF (20 μM) for 48 h. The expression of PD-1 was determined by flow cytometry.
(5) CD8^+ T cells isolated from patients with breast cancer or lung cancer were treated with DMF (20 μM) for 48 h. PD-1 expression was determined by flow cytometry (n=6).

PAT4 and SLC7A8 = PAT4 and SLC7A8 expression in CD8+ T cells from breast cancer patients (real-time PCR); format: cell-based, human; conditions: human CD8+ T cells, Kyn, 48 h
Description: (8) CD8^+ T cells from breast cancer patients were treated with PBS, Kyn ([…] (20 μM) or Kyn/CH (50 μM) for 48 h. The expression of PAT4 and SLC7A8 was determined by real-time PCR. The determination results were as shown in FIG. 7I.

PD-1 [4] = test: Effect of SAR and BCH on PD-1 expression in mouse CD8+ T cells (flow cytometry); format: cell-based; conditions: 200 μM Kyn, 48 h
Description: Mouse splenic CD8^+ T cells were obtained by magnetic bead sorting, and seeded into a U-shaped bottom 96-well plate (100000 cells/well) while anti-CD3/CD28 magnetic beads were added to activate T cells. The culture medium was RPMI-1640 added with 10 ng/mL mouse IL-2 and […] β-mercaptoethanol. Cells were grouped and treated with drugs as follows.
Control group 1 (PBS): culture medium+PBS;
Experimental group 2 (Kyn): culture medium+200 μM Kyn;
Experimental group 3 (Kyn+SAR): culture medium+200 μM Kyn+10 mM SAR;
Experimental group 4 (Kyn+BCH): culture medium+200 μM Kyn+100 μM BCH;
The expression level of PD-1 in CD8^+ T cells of each group was determined by flow cytometry after 48 h.

**Q.** How did the PD-1 expression (PD-1 [1]) turn out when `Nc1ccccc1C(=O)CC(N)C(=O)O` (stereo not shown) [Kyn, kynurenine] was run?
**A.** Its PD-1 expression is “markedly upregulated”.

**Q.** What about the AhR localisation (AhR; activated T cells, 200 μM Kyn) of the same compound?
**A.** Its AhR localisation is “translocation of cytoplasmic AhR to the nucleus”.

**Q.** What about the AhR expression (AhR; resting T cells, Kyn 200 μM, further increased in activated T cells) of the same compound?
**A.** The AhR expression was “upregulated”.

**Q.** What about the “essential amino acids in the cytosol” value (CD8^+ T cells) of the same compound?
**A.** Its value is “had no effect on most of the essential amino acids except some decrease of the intensity of threonine”.

**Q.** What about the “PD-1 expression in tumor-infiltrating CFSE+ T cells” value (PD-1 [2]) of the same compound?
**A.** Its value is “much higher levels of PD-1 expression”.

**Q.** What about the “PD-1 expression in CD8+ T cells isolated from tumor, spleen or lymph nodes” value (B16 melanoma; Kyn 50 μg/mouse i.p. once every two days, 6 days) of the same compound?
**A.** Its value is “upregulate”.

**Q.** What about the “tumor growth (tumors weighed)” value (B16 melanoma; Kyn-treatment) of the same compound?
**A.** Its value is “accelerated tumor growth”.

**Q.** What about the PD-1 expression (PD-1 [3]) of the same compound?
**A.** Its PD-1 expression is “upregulated”.

**Q.** What about the “expression of SLC7A8 and PAT4” value (PAT4 and SLC7A8) of the same compound?
**A.** The value was “upregulated”.

**Q.** And the “expression of PD-1 in CD8+ T cells” value (PD-1 [4])?
**A.** Its value is “significant increased”.
